Results from patent US9220794B2, “Two-photon fluorescent probes for imaging of total sulfide in live cell and tissue, and quantitative estimation of total sulfide concentration using the same” (Korea University Research and Business Foundation, priority 2013, dated 2015).

Key:
[1] = physchem; conditions: pH 7.2
Procedure: The pKa value of H2S in HEPES/EtOH (1/1, pH 7.2) was estimated by using the following equations. HS^−+H2O⇄H2S+HO^− K1=[H2S][HO^−]/[HS^−] (1) H2O⇄H^++HO^− Kw=[H^+][HO^−] (2) H2S⇄H^++HS^− Ka=[H^+][HS^−]/[H2S]=Kw/K1 (3)
First, the pH of the solution containing 10.0 mM NaSH was measured in H2O/EtOH (1/1) at 37.0° C. using a pH meter.
The K1 value was calculated from the equation (1) using [HS^−]o=10.0 mM and pH=9.00.
The pKa value of H2S in HEPES/EtOH (1/1, pH 7.2) was then calculated from the equation (3) using K1=1.00×10^−8M and pKw=15.10 reported in H2O/EtOH (1/1).

[2] = One-photon absorption and emission spectra, fluorescence quantum yield; assay type: physicochemical; conditions: for 10^−4 ε: value is ε×10^−4
Procedure: The solvatochromic effect observed for the compound of [Chemical Formula 2-6] may have resulted from the […] dipole moment.
Absorption spectra were recorded on the Hewlett-Packard 8453 diode array spectrophotometer and fluorescence spectra were obtained with the Amico-Bowman series 2 luminescence spectrometer with a 1-cm standard quartz cell.

[3] = pH sensitivity of the fluorescence; assay type: physicochemical; conditions: biologically relevant pH range
[4] = Measurement of two-photon cross section (fs fluorescence technique, rhodamine 6G reference); assay type: physicochemical; conditions: for Φδmax, two-photon action cross section: uncertainty ±15%
Procedure: Two-photon cross section (δ) was determined using a femtosecond (fs) fluorescence measurement technique.
The compound of [Chemical Formula 2-5] and the compound of [Chemical Formula 2-6] were dissolved in 20 mM HEPES buffer (pH 7.2) and 3.0×10^−6 M HEPES/EtOH (1/1) and then two-photon induced fluorescence intensity was measured at 740-940 nm using rhodamine 6G as a reference, whose two-photon property has been well characterized. The two-photon fluorescence intensities of the reference and the compound of [Chemical Formula 2-6] and the compound of [Chemical Formula 2-5] were determined.
The two-photon cross section was calculated from δ=δr(Ssφrφrcr)/(Srφsφscs). In the equation, the subscripts s and r stand for the sample, i.e., the compound of [Chemical Formula 2-6] and the compound of […], respectively. S denotes the intensity of the signal collected using a CCD detector, φ is the fluorescence quantum yield (measured using coumarin 307 and rhodamine B according to the literature), […] fluorescence collection efficiency, and c is the number density of molecules in solution. δr is the two-photon cross section of the reference molecule.

[5] = system: HeLa cells; test: Two-photon excited fluorescence spectra of labeled HeLa cells; assay type: cell-based, human
Procedure: Accordingly, it can be seen that HEPES/EtOH (1/1) has polarity similar to that of the cellular environment.
This confirms again that HEPES/EtOH (1/1) is a good model of the cellular environment and HS^− can be detected by TPM using the compound of [Chemical Formula 2-6].
HeLa human cervical carcinoma cells were acquired from the ATCC (Manassas, Va., USA). The cells were cultured in DMEM (WelGene, Inc., Seoul, Korea) supplemented with heat-inactivated 10% FBS (WelGene), penicillin (100 units/mL) and streptomycin ([…]).
For labeling, the growth medium was removed and replaced with DMEM without FBS. The cells were incubated with the compound of [Chemical Formula 2-6] ([…]) for 30 minutes, washed 3 times with FBS-free DMEM and imaged.
The TPM images were obtained with the DM IRE2 microscope (Leica) by exciting the probes with a mode-locked titanium-sapphire laser source (Coherent Chameleon, 90 MHz, 200 fs) set at a wavelength of 750 nm and an output power of 1380 mW, which corresponded to an average power of approximately 2 mW in the focal plane.

[6] = system: rat colon tissue; test: Kinetic measurement of total sulfide in rat colon tissue slices; assay type: in vivo; conditions: probe 2-6; for kobs in colon tissue: after 5-FU 150 mg/kg i.p., 8 hours; for total sulfide concentration in colon tissue: after 5-FU treatment
Procedure: To quantitatively estimate the total sulfide concentration, kinetic experiments were performed in the colon tissue labeled with the compound of [Chemical Formula 2-6].
(§1) Male Sprague-Dawley rats (235-265 g) were divided into two groups (5-FU and control groups). In the 5-FU group, 150 mg/kg of 5-FU (SoloPak Laboratories, Franklin Park, Ill.) were intraperitoneally injected into the rats. The rats of the control group were injected with saline. Each group consisted of 4 rats.
(§2) 8 hours after the intraperitoneal injection, all the rats were sacrificed. Laparotomy was performed after anesthetizing the rats.
Kinetic experiments in rat colon tissue were performed using four colon slices obtained from four rats. Two sets of experiments were performed for each slice. In each set, TPEF intensities from 8 ROI's/section were collected at depths of 90-150 μm (mucosa) and 151-170 μm (submucosa) in the colon tissue labeled with the compound of [Chemical Formula 2-6] and averaged.
The rate constant (kobs) was measured from 7 and 3 sections of the mucosa and submucosa tissues, respectively, in order to obtain 112 kobs and 48 kobs values, respectively. The rate constant (kobs) was expressed as mean±SD and p was set to be smaller than 0.05.

[7] = system: rat colon tissue; test: Ratiometric TPM imaging (F2/F1) of rat colon slices; assay type: in vivo; conditions: rats given 5-FU 150 mg/kg i.p., 8 hours, probe 2-6
Procedure: The utility of the compound of [Chemical Formula 2-6] was investigated in living tissues from a 5-week-old rat colon. The inventors were particularly interested in the mucosa, muscularis mucosae and submucosa because they are invaded in the early stage of tumor (FIG. 4c). Since it takes a long time to stain the tissues during which they may be deformed, excess amount (20 μM) of the compound of [Chemical Formula 2-6] was used to facilitate staining.
Because the structure of the colon tissue is heterogeneous, TPEF intensities were acquired from 150 sections along the z-direction at a depth of about 90-170 μm using two detection windows (1 and 2) to visualize the overall sulfide distribution.
Therefore, the sections were divided into two regions and they were assigned as mucosa (90-150 μm) and submucosa including the muscularis mucosae (151-170 μm).
as §1
All the rats were injected between 9 pm and 12 midnight, were allowed free access to food and water and were housed in the same room with 8-hour cycles.
as §2
Slices were prepared from the colon of the rats. The colon slices were cut into 2-cm long segments, opened by longitudinal incision and then treated with Dulbecco's phosphate-buffered saline (D-PBS; […]).
The colon slices were incubated with the compound of [Chemical Formula 2-6] (20 μM) in D-PBS bubbled with 95% O2 and 5% CO2 at 37° C. The colon slices were then moved to glass-bottomed dishes, washed 3 times with D-PBS and observed under a confocal multiphoton microscope.
TPEF intensities were collected using detection windows of 390-450 nm and 520-650 nm, with 110 sections at a depth of 90-150 μm (mucosa) and 40 sections at a depth of 151-170 μm (submucosa).
Then ratiometric images were constructed from the TPEF intensities collected using the two detection window. The F2/F1 ratio was expressed as mean±SD and p was set to be smaller than 0.05.

[8] = system: HeLa cells; test: Kinetic estimation of total sulfide concentration in HeLa cells (TPEF); assay type: cell-based, human
Procedure: To quantitatively estimate the total sulfide concentration in living cells, the TPEF intensity of HeLa cells labeled with the compound of [Chemical Formula 2-6] was monitored in the absence and presence of Na2S, cysteine (Cys) and glutathione (GSH) with 20-30 minute intervals.
Since H2S and HS^− are in equilibrium and [H2S]/[HS^−]=[H^+]/Ka=0.794 in HEPES/EtOH (1/1, pH=7.2), it seems appropriate to present the total sulfide concentration ([H2S]+[HS^−]).
Kinetic experiments in HeLa cells were conducted in the same manner except that TPEF intensities from HeLa cells labeled with the compound of [Chemical Formula 2-6] upon excitation at 750 nm were monitored with 20-30 minute intervals.
The average TPEF intensities at given time and the SB2/SA1 ratio was obtained by dividing the TPEF intensity of [Chemical Formula 2-6] at 390-450 nm by that of [Chemical Formula 2-5] at 525-650 nm in the HeLa cells (FIG. 1b) were used in the kobs calculation.
The kobs value was measured at 10 regions of interest (ROIs) from three independent cell lines.
To evaluate the effect of Na2S, cysteine and GSH, HeLa cells were incubated with the compound of [Chemical Formula 2-6] (2 μM) and then treated with Na2S (100, 300 μM), cysteine (500 μM) and GSH (500 μM) for 30 minutes. The cells were then washed 3 times with FBS-free DMEM and subjected to kinetic measurement.

[9] = HEPES buffer (20 mM HEPES, 100 mM KCl, pH 7.4)
[10] = cells treated with 500 μM additive, probe 2-6

## S [H2S, Hydrogen sulfide]
[1]
  pKa: 7.1

## COCCOCCC1(CCOCCOC)c2cc(N)ccc2-c2ccc(-c3nc4ccccc4s3)cc21 [Chemical Formula 2-5]
[2]; 1,4-dioxane<DMF<EtOH<HEPES/EtOH (1/1)<HEPES buffer
  Δλ^FImax, shift of emission spectrum with solvent polarity: 95 nm
[2]; EtOH
  Φ, fluorescence quantum yield: 0.87
  λ^(1)max, one-photon absorption maximum: 381 nm
  λ^flmax, one-photon emission maximum: 498 nm
  10^−4 ε: (4.81) M^−1cm^−1
[2]; HEPES buffer
  Φ, fluorescence quantum yield: 0.46
[2]; [9]
  λ^(1)max, one-photon absorption maximum: 363 nm
  λ^flmax, one-photon emission maximum: 548 nm
[2]; HEPES buffer, pH 7.4
  ε at maximum absorption: 39100 M⁻¹ cm⁻¹
[2]; HEPES/EtOH (1/1)
  Φ, fluorescence quantum yield: 0.81
  λ^(1)max, one-photon absorption maximum: 368 nm
  λ^flmax, one-photon emission maximum: 530 nm
  10^−4 ε: (4.77) M^−1cm^−1
[2]; HEPES
  10^−4 ε: (3.91) M^−1cm^−1
[3]
  pH sensitivity: pH-insensitive
[4]; HEPES
  λ^(2)max, two-photon maximum: 750 nm
[4]; HEPES buffer, 2-6 at 740 nm, 2-5 at 750 nm
  Φδmax, two-photon action cross section: 52 GM
[4]; HEPES/EtOH (1/1)
  λ^(2)max, two-photon maximum: 750 nm
[4]; HEPES/EtOH (1/1) vs HEPES buffer
  increase of action cross section (φδ) in HEPES/EtOH (1/1) versus HEPES buffer: about 2 fold
[4]; HEPES/EtOH (1/1), GM = 10^−50 cm^4s/photon
  Φδmax, two-photon action cross section: 94 GM
[5]
  λ^flmax, maximum emission in cells: 520 nm

## O=c1[nH]cc(F)c(=O)[nH]1 [5-fluorouracil, reference compound]
[6]; mucosa
  kobs in colon tissue: (4.0±0.7)×10^−5 s^−1
  total sulfide concentration in colon tissue: 14 ± 3 µM
[6]; submucosa
  kobs in colon tissue: (2.3±0.6)×10^−5 s^−1
  total sulfide concentration in colon tissue: 7.9 ± 2.2 µM
[7]; mucosal layer
  emission ratio F2/F1: 0.98±0.07
[7]; submucosa
  emission ratio F2/F1: 0.84±0.05

## N[C@@H](CS)C(=O)O [Cys, cysteine]
[8]; [10]
  kobs in labeled HeLa cells: (1.4±0.7)×10^−6 s^−1
  total sulfide concentration ([H2S]+[HS^−]) in HeLa cells: 0.50 ± 0.23 µM

## N[C@@H](CCC(=O)N[C@@H](CS)C(=O)NCC(=O)O)C(=O)O [GSH, glutathione]
[8]; [10]
  kobs in labeled HeLa cells: (6.3±1.8)×10^−6 s^−1
  total sulfide concentration ([H2S]+[HS^−]) in HeLa cells: 2.2 ± 0.6 µM

## [Na+].[Na+].[S-2] [Na2S]
[8]; cells pretreated with 100 μM Na2S, probe 2-6
  kobs in labeled HeLa cells: (2.6±0.9)×10^−6 s^−1
[8]; cells pretreated with 100 μM Na2S, from kobs, k2=5.17 M^−1s^−1, [H2S]/[HS^−]=0.794
  total sulfide concentration ([H2S]+[HS^−]) in HeLa cells: 0.90 ± 0.32 µM
[8]; cells pretreated with 300 μM Na2S, probe 2-6
  kobs in labeled HeLa cells: (7.9±1.9)×10^−6 s^−1
[8]; cells pretreated with 300 μM Na2S, from kobs, k2=5.17 M^−1s^−1, [H2S]/[HS^−]=0.794
  total sulfide concentration ([H2S]+[HS^−]) in HeLa cells: 2.7 ± 0.7 µM
